Experimental data: ChEMBL document CHEMBL1129138, “Nucleosides and nucleotides. 152. 1-(3-C-Ethynyl--D-ribo-pentofuranosyl)uracil as a broad spectrum antitumor nucleoside” (Bioorg Med Chem Lett, 1996)
pIC50: −log10 of the molar value.

How the values were obtained:
A549 = experiment: Compound was tested for its inhibitory effect on the growth of A-549 tumor cell line from lung.; format: functional, cell-based; conditions: Homo sapiens
AZ-521 cell line [1] = experiment: Compound was tested for its inhibitory effect on the growth of AZ-521 tumor cell line from stomach.; format: functional, cell-based; conditions: Homo sapiens
AZ-521 cell line [2] = experiment: Compound was tested for its percentage inhibitory effect on the growth of AZ-521 tumor cell line from stomach at an iv dose of 2 mh/kg x10.; format: functional, Homo sapiens
BXPC-3 [3] = experiment: Compound was tested for its percentage inhibitory effect on the growth of BxPC-3 tumor cell line from […] at an iv dose of 15 mg/kg x14.; format: functional, Homo sapiens
Co-3 [4] = experiment: Compound was tested for its percentage inhibitory effect on the growth of CO-3 tumor cell line from colon at an iv dose of 15 mg/kg x14.; format: functional, Homo sapiens
DLD-1 [5] = experiment: Compound was tested for its percentage inhibitory effect on the growth of DLD-1 tumor cell line from colon at an iv dose of 15 mg/kg x14.; format: functional, Homo sapiens
COLO 320DM = experiment: Compound was tested for its inhibitory effect on the growth of COLO 320DM tumor cell line from colon.; format: functional, cell-based; conditions: Homo sapiens
DLD-1 [6] = experiment: Compound was tested for its inhibitory effect on the growth of DLD-1 tumor cell line from colon.; format: functional, cell-based; conditions: Homo sapiens
H-81 [7] = experiment: Compound was tested for its percentage inhibitory effect on the growth of H-81 tumor cell line from stomach at an iv dose of 15 mg/kg x14.; format: functional, Homo sapiens
HCT-15 = experiment: Compound was tested for its inhibitory effect on the growth of HCT-15 tumor cell line from colon.; format: functional, cell-based; conditions: Homo sapiens
KKLS = experiment: Compound was tested for its inhibitory effect on the growth of KKLS tumor cell line from stomach.; format: functional, cell-based; conditions: Homo sapiens
KM12 [8] = experiment: Compound was tested for its percentage inhibitory effect on the growth of KM12C tumor cell line from colon at an iv dose of 15 mg/kg x14.; format: functional, Homo sapiens
MKN-45 = experiment: Compound was tested for its inhibitory effect on the growth of MKN-45 tumor cell line from stomach.; format: functional, cell-based; conditions: Homo sapiens
MKN-28 = experiment: Compound was tested for its inhibitory effect on the growth of MKN-28 tumor cell line from stomach.; format: functional, cell-based; conditions: Homo sapiens
NUGC-3 = experiment: Compound was tested for its inhibitory effect on the growth of NUGC-3 tumor cell line from stomach.; format: functional, cell-based; conditions: Homo sapiens
PAM12 [9] = experiment: Compound was tested for its percentage inhibitory effect on the growth of PAN-12 tumor cell line from […] at an iv dose of 15 mg/kg x14.; format: functional, Homo sapiens
PANC-1 = experiment: Compound was tested for its inhibitory effect on the growth of PANC-1 tumor cell line from pancreas.; format: functional, cell-based; conditions: Homo sapiens
SW48 = experiment: Compound was tested for its inhibitory effect on the growth of SW-48 tumor cell line from colon.; format: functional, cell-based; conditions: Homo sapiens
SNU-C2A = experiment: Compound was tested for its inhibitory effect on the growth of […] tumor cell line from colon.; format: functional, cell-based; conditions: Homo sapiens
T-24 = experiment: Compound was tested for its inhibitory effect on the growth of T24 tumor cell line from bladder.; format: functional, cell-based; conditions: Homo sapiens
HT-1080 = experiment: Compound was tested for its inhibitory effect on the growth of HT1080 sarcoma tumor cell line.; format: functional, cell-based; conditions: Homo sapiens
AZ-521 cell line [10] = experiment: Compound was tested for its percentage inhibitory effect on the growth of AZ-521 tumor cell line from stomach at an iv dose of 2 mg/kg x10.; format: functional, Homo sapiens
BXPC-3 [11] = experiment: Compound was tested for its percentage inhibitory effect on the growth of BxPC-3 tumor cell line from […] at an iv dose of 2 mg/kg x10.; format: functional, Homo sapiens
Co-3 [12] = experiment: Compound was tested for its percentage inhibitory effect on the growth of CO-3 tumor cell line from colon at an iv dose of 2 mg/kg x10.; format: functional, Homo sapiens
DLD-1 [13] = experiment: Compound was tested for its percentage inhibitory effect on the growth of DLD-1 tumor cell line from colon at an iv dose of 2 mg/kg x10.; format: functional, Homo sapiens
H-81 [14] = experiment: Compound was tested for its percentage inhibitory effect on the growth of H-81 tumor cell line from stomach at an iv dose of 2 mg/kg x10.; format: functional, Homo sapiens
KM12 [15] = experiment: Compound was tested for its percentage inhibitory effect on the growth of KM12C tumor cell line from colon at an iv dose of 2 mg/kg x10.; format: functional, Homo sapiens
PAM12 [16] = experiment: Compound was tested for its percentage inhibitory effect on the growth of PAN-12 tumor cell line from […] at an iv dose of 2 mg/kg x10.; format: functional, Homo sapiens

Structure (SMILES): O=c1[nH]cc(F)c(=O)[nH]1 [FLUOROURACIL]
- pIC50 (A549): 5.77
- pIC50 (AZ-521 cell line [1]): 5.41
- Tumor inhibition ratio (AZ-521 cell line [2]): 25%
- Tumor inhibition ratio (BXPC-3 [3]): 50%
- Tumor inhibition ratio (Co-3 [4]): 49%
- Tumor inhibition ratio (DLD-1 [5]): 50%
- pIC50 (COLO 320DM): 5.96
- pIC50 (DLD-1 [6]): 5.22
- Tumor inhibition ratio (H-81 [7]): 83%
- pIC50 (HCT-15): 5.24
- pIC50 (KKLS): 5.21
- Tumor inhibition ratio (KM12 [8]): 59%
- pIC50 (MKN-45): 5.52
- pIC50 (MKN-28): 5.60
- pIC50 (NUGC-3): 5.36
- Tumor inhibition ratio (PAM12 [9]): 40%
- pIC50 (PANC-1): < 4.11
- pIC50 (SW48): 5.24
- pIC50 (SNU-C2A): 5.57
- pIC50 (T-24): 4.66

Structure (SMILES): O=c1[nH]c(=O)n([C@H]2C[C@H](O)[C@@H](CO)O2)cc1F [FLOXURIDINE]
- pIC50 (A549): 6.00
- pIC50 (AZ-521 cell line [1]): 7.30
- pIC50 (COLO 320DM): 6.19
- pIC50 (DLD-1 [6]): 7.04
- pIC50 (HCT-15): 7.31
- pIC50 (HT-1080): 6.92
- pIC50 (KKLS): 6.12
- pIC50 (MKN-45): 5.46
- pIC50 (MKN-28): 6.92
- pIC50 (NUGC-3): 7.82
- pIC50 (PANC-1): < 4.40
- pIC50 (SW48): 6.89
- pIC50 (SNU-C2A): 8.48
- pIC50 (T-24): 6.92

Structure (SMILES): O=c1[nH]c(=O)n([C@@H]2O[C@H](CO)[C@@H](O)[C@H]2O)cc1F [5-FLUOROURIDINE]
- pIC50 (A549): 5.72
- pIC50 (AZ-521 cell line [1]): 7.30
- pIC50 (COLO 320DM): 8.27
- pIC50 (DLD-1 [6]): 7.14
- pIC50 (HCT-15): 7.33
- pIC50 (HT-1080): 7.39
- pIC50 (KKLS): 7.80
- pIC50 (MKN-45): 7.59
- pIC50 (MKN-28): 7.55
- pIC50 (NUGC-3): 7.66
- pIC50 (PANC-1): 4.96
- pIC50 (SW48): 7.80
- pIC50 (SNU-C2A): 7.35
- pIC50 (T-24): 7.85

Structure (SMILES): C#C[C@]1(O)[C@@H](CO)O[C@@H](n2ccc(=O)[nH]c2=O)[C@@H]1O
- pIC50 (A549): 7.54
- pIC50 (AZ-521 cell line [1]): 7.44
- Ratio (AZ-521 cell line [10]): 81
- Tumor inhibition ratio (BXPC-3 [11]): 35%
- Tumor inhibition ratio (Co-3 [12]): 90%
- Tumor inhibition ratio (DLD-1 [13]): 73%
- pIC50 (COLO 320DM): 7.22
- pIC50 (DLD-1 [6]): 7.18
- Tumor inhibition ratio (H-81 [14]): 92%
- pIC50 (HCT-15): 7.37
- pIC50 (HT-1080): 7.62
- pIC50 (KKLS): 6.72
- Tumor inhibition ratio (KM12 [15]): 81%
- pIC50 (MKN-45): 7.62
- pIC50 (MKN-28): 7.10
- pIC50 (NUGC-3): 7.47
- Tumor inhibition ratio (PAM12 [16]): 81%
- pIC50 (PANC-1): 4.96
- pIC50 (SW48): 6.92
- pIC50 (SNU-C2A): 7.74
- pIC50 (T-24): 7.47
